One data set is described as follows: Analgesia (Table I). In kind it is in vivo. More on the design: inhibition in vivo: dose or concentration left out as unconfirmed. The conditions noted are these: read-out: ANALGESIA % Inhibition; for inhibition in vivo at 10 mg/kg: @ 10 mpk (values marked *).
The next data set has as its system carrageenan foot edema. Briefly: Rat carrageenan foot pad edema test. In kind it is in vivo, Male Sprague-Dawley rats. Set-up: inhibition in vivo: dose or concentration left out as unconfirmed. The note with it: po, 3 h, dosed orally, foot volume three hours after carrageenan, read-out: RAT PAW EDEMA % Inhibition; for inhibition in vivo at 10 mg/kg: @ 10 mpk (values marked *). The method, then:
Rat Carrageenan Foot Pad Edema Test
Male Sprague-Dawley rats were selected in each group so that the average body weight was as close as possible. Rats were fasted with free access to water for over sixteen hours prior to the test. The rats were dosed orally (1 mL) with compounds suspended in vehicle containing 0.5% methylcellulose and 0.025% surfactant, or with vehicle alone. One hour later a subplantar injection of 0.1 mL of 1% solution of carrageenan/sterile 0.9% saline was administered and the volume of the injected foot was measured with a displacement plethysmometer connected to a pressure transducer with a digital indicator. Three hours after the injection of the carrageenan, the volume of the foot was again measured. The average foot swelling in a group of drug-treated animals was compared with that of a group of placebo-treated animals and the percentage inhibition of edema was determined (Otterness and Bliven, Laboratory Models for Testing NSAIDs, in Non-steroidal Anti-Inflammatory Drugs, (J. Lombardino, ed. 1985)).
In general terms: Carrageenan injected into the paw causes an acute inflammation.

For data set [1], the target named is T1, COX-2 (UniProt P35354).
T1 sequence (P35354 1-604): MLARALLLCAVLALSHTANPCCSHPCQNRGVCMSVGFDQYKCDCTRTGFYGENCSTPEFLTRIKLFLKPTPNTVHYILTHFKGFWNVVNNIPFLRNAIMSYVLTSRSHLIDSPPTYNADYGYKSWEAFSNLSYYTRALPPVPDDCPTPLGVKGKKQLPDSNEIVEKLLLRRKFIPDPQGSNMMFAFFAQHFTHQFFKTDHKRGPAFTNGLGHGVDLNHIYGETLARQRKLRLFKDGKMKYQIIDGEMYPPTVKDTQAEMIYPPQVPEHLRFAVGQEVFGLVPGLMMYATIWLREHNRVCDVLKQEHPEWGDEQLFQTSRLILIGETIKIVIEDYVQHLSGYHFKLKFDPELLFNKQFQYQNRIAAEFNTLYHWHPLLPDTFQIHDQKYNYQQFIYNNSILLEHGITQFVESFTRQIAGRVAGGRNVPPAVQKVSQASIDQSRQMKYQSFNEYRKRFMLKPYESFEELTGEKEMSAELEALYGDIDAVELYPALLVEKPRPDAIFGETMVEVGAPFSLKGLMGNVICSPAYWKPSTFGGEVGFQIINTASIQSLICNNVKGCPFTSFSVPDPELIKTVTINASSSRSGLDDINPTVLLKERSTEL
Nature of the data set: Fast assay for COX-2 activity (PGE2 ELISA). In kind it is biochemical, human or murine. The conditions noted are these: fast assay: 10 min pre-incubation at 25° C., reaction stopped after two minutes, pH 7.5. (In general: ELISA stands for enzyme-linked immunosorbent assay.)
Method: The homogenate was centrifuged at 10,000×G for 30 minutes, and the resultant supernatant was stored at −80° C. before being assayed for COX activity.
Fast Assay for COX-1 and COX-2 Activity
COX activity was assayed as PGE2 formed/μg protein/time using an ELISA to detect the prostaglandin released. CHAPS-solubilized insect cell membranes containing the appropriate COX enzyme were incubated in a potassium phosphate buffer (0.05 M Potassium phosphate, pH 7.5, 2 μM phenol,1 μM heme, 300 μM epinephrine) with the addition of 20 μl of 100 μM arachidonic acid (10 μM). […] The PGE2 formed was measured by standard ELISA technology (Cayman Chemical).

Another data set has as its target COX-1 (UniProt P23219). Briefly: Assay for COX-1 activity (PGE2 ELISA). The note with it: read-out: COX-1 IC50; 10–20 minutes pre-incubation, reaction stopped after ten minutes, pH 8.0.
Data set [2] deals with T1, COX-2. Nature of the data set: Assay for COX-2 activity (PGE2 ELISA). The conditions noted are these: read-out: COX-2 IC50; 10–20 minutes pre-incubation, reaction stopped after ten minutes, pH 8.0.
Method: (§1) Recombinant baculoviruses were isolated by transfecting 4 μg of baculovirus transfer vector DNA into SF9 insect cells (2×10^8) along with 200 ng of linearized baculovirus plasmid DNA by the calcium phosphate method. […] Recombinant viruses were purified by three rounds of plaque purification and high titer (10^7–10^8 pfu/mL) stocks of virus were prepared. For large scale production, SF9 insect cells were infected in 10 liter fermentors (0.5×10^6/mL) with the recombinant baculovirus stock such that the multiplicity of infection was 0.1. […] The homogenate was centrifuged at 10,000×G for 30 minutes, and the resultant supernatant was stored at −80° C. before being assayed for COX activity.
Assay for COX-1 and COX-2 Activity
(§2) COX activity was assayed as PGE2 formed/μg protein/time using an ELISA to detect the prostaglandin released. CHAPS-solubilized insect cell membranes containing the appropriate COX enzyme were incubated in a potassium phosphate buffer (50 mM, pH 8.0) containing epinephrine, phenol, and heme with the addition of arachidonic acid (10 μM). […] The PGE2 formed was measured by standard ELISA technology (Cayman Chemical).

The term IC50 denotes the concentration needed to halve the response being measured. What is called melting point is the temperature, or range, at which the solid turns liquid.

Each structure is given as a SMILES string. Bounds are passed on as bounds.

Method for COX-1: as §1
Assay for COX-1 and COX-2 Activity
as §2

On to `O=C(O)C1=Cc2cc(Cl)ccc2OC1C(F)(F)F` (stereo not drawn) [Example 1, 6-Chloro-2-trifluoromethyl-2H-1-benzopyran-3-carboxylic acid], for which the inhibition in vivo in “Analgesia (Table I)” came to 58%; in the data set on carrageenan foot edema it was 57%. Besides, the IC50 against COX-2 [1] was determined as 300 nM.
The corresponding values for `CC(C)(C)c1ccc2c(c1)OC(C(F)(F)F)C(C(=O)O)=C2` (stereo not drawn) [Example 12, 7-(1,1-Dimethylethyl)-2-trifluoromethyl-2H-1-benzopyran-3-carboxylic acid] are 37%, 30% and 7000 nM.
Take `O=C(O)C1=Cc2cc(OC(F)(F)F)ccc2OC1C(F)(F)F` (stereo not drawn) [Example 16, 6-Trifluoromethoxy-2-trifluoromethyl-2H-1-benzopyran-3-carboxylic acid]: the inhibition in vivo in the data set “Analgesia (Table I)” was found to be 34%; with carrageenan foot edema it was 48%. On COX-1, the IC50 came out at 51000 nM.
Consider `O=C(O)C1=Cc2cc(I)ccc2OC1C(F)(F)F` (stereo not drawn) [Example 24, 6-Iodo-2-trifluoromethyl-2H-1-benzopyran-3-carboxylic acid], for which the melting point was in the range of 168 to 170 °C. Besides, the inhibition in vivo in “Analgesia (Table I)” turned out to be 25%. Besides, the inhibition in vivo in the data set with carrageenan foot edema was determined as 29%.
With `O=C(O)C1=Cc2cc(Cl)c(Cl)cc2OC1C(F)(F)F` (stereo not drawn) [Example 31, 6,7-Dichloro-2-trifluoromethyl-2H-1-benzopyran-3-carboxylic acid], the results for the inhibition in vivo at 10 mg/kg in the data set “Analgesia (Table I)” and in the data set on carrageenan foot edema were 37% and 39%, respectively. The IC50 against COX-2 [1] was less than 100 nM.
Consider `Cc1cc(Cl)cc2c1OC(C(F)(F)F)C(C(=O)O)=C2` (stereo not drawn) [Example 38, 6-Chloro-8-methyl-2-trifluoromethyl-2H-1-benzopyran-3-carboxylic acid], for which the inhibition in vivo in “Analgesia (Table I)” turned out to be 55%; in the data set with carrageenan foot edema, 47%. Further, the IC50 on COX-1 was 57000 nM.
As for `Cc1cc(Cl)c2c(c1)C=C(C(=O)O)C(C(F)(F)F)O2` (stereo not drawn) [Example 39, 8-Chloro-6-methyl-2-trifluoromethyl-2H-1-benzopyran-3-carboxylic acid], the inhibition in vivo in the data set “Analgesia (Table I)” turned out to be 8%; in the data set on carrageenan foot edema, 18%. Also, at COX-1, the IC50 is greater than 100000 nM.
For the compound `O=C(O)C1=Cc2cc(Cl)cc(F)c2OC1C(F)(F)F` (stereo not drawn) [Example 46, 6-Chloro-8-fluoro-2-trifluoromethyl-2H-1-benzopyran-3-carboxylic acid], the melting point lay within 190.8 to 193 °C. Also, the inhibition in vivo in the data set “Analgesia (Table I)” was 67%. The half-inhibitory concentration (IC50) on COX-1 was 43000 nM. Besides, the IC50 at COX-2 [2] was 74000 nM. Also, the inhibition in vivo in the data set with carrageenan foot edema was determined as 59%. The compound further registered a concentration for half-maximal inhibition (IC50) at COX-2 [1] of 200 nM.
The compound `O=C(O)C1=Cc2cc(Cl)ccc2SC1C(F)(F)F` (stereo not drawn) [Example 65, 6-Chloro-2-trifluoromethyl-2H-1-benzothiopyran-3-carboxylic acid] came in with a melting point of 188.8 to 198.7 °C. In addition, the inhibition in vivo in the data set “Analgesia (Table I)” turned out to be 32%. Besides, the inhibition in vivo in the data set on carrageenan foot edema is 43%. For the same compound, at COX-2 [1], the IC50 was less than 100 nM.
Take `N#Cc1ccc2c(c1)C=C(C(=O)O)C(C(F)(F)F)O2` (stereo not drawn) [Example 79, 6–Cyano-2-(trifluoromethyl)-2H-1-benzopyran-3-carboxylic acid]: the melting point was in the range of 185.1 to 186.1 °C. Also, the inhibition in vivo in “Analgesia (Table I)” was determined as 53%. In the data set with carrageenan foot edema, the inhibition in vivo worked out at 45%.
As to `O=C(O)C1=Cc2cc(C(F)F)ccc2OC1C(F)(F)F` (stereo not drawn) [Example 81, 6-(Difluoromethyl)-2-(trifluoromethyl)-2H-1-benzopyran-3-carboxylic acid], the inhibition in vivo in the data set “Analgesia (Table I)” worked out at 44%; in the data set with carrageenan foot edema, 36%. In addition, the concentration for half-maximal inhibition (IC50) on COX-1 is 1600 nM; on COX-2 [2] it was less than 100 nM; at COX-2 [1], less than 100 nM.
`O=C(O)C1=Cc2c(cc(Cl)c(Cl)c2Cl)OC1C(F)(F)F` (stereo not drawn) [Example 83, 5,6,7-Trichloro-2-(trifluoromethyl)-2H-1-benzopyran-3-carboxylic acid]: the inhibition in vivo in “Analgesia (Table I)” came to 65%; in the data set with carrageenan foot edema, 56%. Also, the IC50 was 1400 nM on COX-1, less than 100 nM on COX-2 [2] and less than 100 nM against COX-2 [1].
Turning to `O=C(O)C1=Cc2cc(Cl)c(Cl)c(Cl)c2OC1C(F)(F)F` (stereo not drawn) [Example 84, 6,7,8-Trichloro-2-(trifluoromethyl)-2H-1-benzopyran-3-carboxylic acid], the inhibition in vivo in the data set “Analgesia (Table I)” stood at 24%; with carrageenan foot edema it was 44%. Besides, the IC50 on COX-1 is 2800 nM; at COX-2 [2], less than 100 nM.
Consider `O=C(O)C1=Cc2cc(Oc3ccc(C(F)(F)F)cc3)cc(Cl)c2OC1C(F)(F)F` (stereo not drawn) [Example 105], for which the melting point is 223.7 to 226 °C. Also, in “Analgesia (Table I)”, the inhibition in vivo amounted to 69%. Besides, the IC50 at COX-1 was determined as 100 nM. The half-inhibitory concentration (IC50) on COX-2 [2] was found to be 200 nM. The inhibition in vivo in the data set on carrageenan foot edema worked out at 75%. Further, it took 300 nM to reach half-maximal inhibition against COX-2 [1] (IC50).
`C#Cc1cc(Cl)cc2c1OC(C(F)(F)F)C(C(=O)O)=C2` (stereo not drawn) [Example 115, 6-Chloro-8-ethynyl-2-(trifluoromethyl)-2H-1-benzopyran-3-carboxylic acid]: the melting point lay in the range of 186.2 to 189 °C. For the same compound, the inhibition in vivo in the data set “Analgesia (Table I)” amounted to 62%. Besides, the IC50 on COX-1 is less than 100 nM. The IC50 on COX-2 [2] was less than 100 nM. Moreover, in the data set with carrageenan foot edema, the inhibition in vivo came to 52%. Further, the IC50 against COX-2 [1] was less than 100 nM.
Compound `C#Cc1ccc2c(c1)C=C(C(=O)O)C(C(F)(F)F)O2` (stereo not drawn) [Example 139, 6-(Ethynyl)-2-(trifluoromethyl)-2H-1-benzopyran-3-carboxylic acid] showed a melting point of 198 to 200 °C. For the same compound, in “Analgesia (Table I)”, the inhibition in vivo is 41%. For the same compound, the inhibition in vivo in the data set on carrageenan foot edema worked out at 42%.
As to `O=C(O)C1=Cc2cc(Cl)cc(Cl)c2SC1C(F)(F)F` (stereo not drawn) [Example 156, 6,8-Dichloro-2-trifluoromethyl-2H-1-benzothiopyran-3-carboxylic acid], the melting point lay in the range of 217.9 to 220.3 °C. The inhibition in vivo in the data set “Analgesia (Table I)” is 66%. Also, the IC50 at COX-1 turned out to be 100 nM. Further, the concentration for half-maximal inhibition (IC50) on COX-2 [2] was less than 100 nM. Also, the inhibition in vivo in the data set with carrageenan foot edema stood at 54%. On COX-2 [1], this compound came in with an IC50 of less than 100 nM.
For `CN1c2ccc(Cl)cc2C=C(C(=O)O)C1C(F)(F)F` (stereo not drawn) [Example 165, 6-Chloro-1,2-dihydro-1-methyl-2-(trifluoromethyl)-3-quinolinecarboxylic acid], the melting point fell in the range of 208 to 209 °C. Further, the inhibition in vivo at 10 mg/kg in “Analgesia (Table I)” turned out to be 33%. Further, the inhibition in vivo at 10 mg/kg in the data set on carrageenan foot edema was 30%.
The compound `O=C(O)C1=Cc2cc(Cl)c(Oc3ccccc3)cc2OC1C(F)(F)F` (stereo not drawn) [Example 177, 6-Chloro-7-phenoxy-2-(trifluoromethyl)-2H-1-benzopyran-3-carboxylic acid] displayed a melting point of 220.2 to 221.8 °C. Further, the inhibition in vivo at 10 mg/kg in the data set “Analgesia (Table I)” came to 61%. Besides, the IC50 on COX-1 is 300 nM. For the same compound, the IC50 at COX-2 [2] is less than 100 nM. In addition, the inhibition in vivo at 10 mg/kg in the data set on carrageenan foot edema came to 59%. Besides, on COX-2 [1], the IC50 is less than 100 nM.
`O=C(O)C1=Cc2cc(Cl)c(Oc3ccc(Cl)cc3Br)cc2OC1C(F)(F)F` (stereo not drawn) [Example 188, 7-(2-Bromo-4-chlorophenoxy)-6-chloro-2-(trifluoromethyl)-2H-1-benzopyran-3-carboxylic acid] came in with a melting point of 223.6 to 225.6 °C. Besides, the inhibition in vivo in “Analgesia (Table I)” turned out to be 69%. At COX-1, the IC50 amounted to 3700 nM. In addition, the IC50 at COX-2 [2] was less than 100 nM. In the data set with carrageenan foot edema, the inhibition in vivo was determined as 57%. The IC50 against COX-2 [1] was less than 100 nM.
